Assay results from the kinase profiling compilation of Christmann-Franck et al. (2016).

Assays:
Assay in all cases: KINOMEscan competition binding
Conditions in all cases: compound 10.0 µM
[1] = target: RPS6KA1 KD2 (human) (UniProt Q15418)
[2] = target: MAP3K10 (human) (UniProt Q02779)
[3] = target: AXL (human) (UniProt P30530)
[4] = target: AKT1 (human) (UniProt P31749)
[5] = target: TNK2 (human) (UniProt Q07912)
[6] = target: MAPK14 (human) (UniProt Q16539)
[7] = target: RIOK2 (human) (UniProt Q9BVS4)
Sequence of RIOK2 (human) (Q9BVS4 whole entry, looked up): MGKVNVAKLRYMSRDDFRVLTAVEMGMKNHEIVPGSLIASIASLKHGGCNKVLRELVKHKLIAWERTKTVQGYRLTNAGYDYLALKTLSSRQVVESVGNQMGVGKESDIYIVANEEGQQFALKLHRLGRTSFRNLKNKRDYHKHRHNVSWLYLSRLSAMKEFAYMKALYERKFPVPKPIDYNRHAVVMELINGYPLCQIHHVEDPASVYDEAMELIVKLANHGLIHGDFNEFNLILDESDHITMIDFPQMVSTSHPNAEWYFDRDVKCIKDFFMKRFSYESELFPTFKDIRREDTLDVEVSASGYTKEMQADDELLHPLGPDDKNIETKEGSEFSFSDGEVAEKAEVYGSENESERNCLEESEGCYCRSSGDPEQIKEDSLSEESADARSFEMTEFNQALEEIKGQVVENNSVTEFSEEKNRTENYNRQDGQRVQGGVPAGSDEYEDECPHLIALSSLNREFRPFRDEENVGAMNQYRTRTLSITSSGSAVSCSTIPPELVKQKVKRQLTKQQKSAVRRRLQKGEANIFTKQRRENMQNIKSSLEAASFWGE

[8] = target: PIK3CA (human) (UniProt P42336)
Sequence of PIK3CA (human) (P42336 whole entry, looked up): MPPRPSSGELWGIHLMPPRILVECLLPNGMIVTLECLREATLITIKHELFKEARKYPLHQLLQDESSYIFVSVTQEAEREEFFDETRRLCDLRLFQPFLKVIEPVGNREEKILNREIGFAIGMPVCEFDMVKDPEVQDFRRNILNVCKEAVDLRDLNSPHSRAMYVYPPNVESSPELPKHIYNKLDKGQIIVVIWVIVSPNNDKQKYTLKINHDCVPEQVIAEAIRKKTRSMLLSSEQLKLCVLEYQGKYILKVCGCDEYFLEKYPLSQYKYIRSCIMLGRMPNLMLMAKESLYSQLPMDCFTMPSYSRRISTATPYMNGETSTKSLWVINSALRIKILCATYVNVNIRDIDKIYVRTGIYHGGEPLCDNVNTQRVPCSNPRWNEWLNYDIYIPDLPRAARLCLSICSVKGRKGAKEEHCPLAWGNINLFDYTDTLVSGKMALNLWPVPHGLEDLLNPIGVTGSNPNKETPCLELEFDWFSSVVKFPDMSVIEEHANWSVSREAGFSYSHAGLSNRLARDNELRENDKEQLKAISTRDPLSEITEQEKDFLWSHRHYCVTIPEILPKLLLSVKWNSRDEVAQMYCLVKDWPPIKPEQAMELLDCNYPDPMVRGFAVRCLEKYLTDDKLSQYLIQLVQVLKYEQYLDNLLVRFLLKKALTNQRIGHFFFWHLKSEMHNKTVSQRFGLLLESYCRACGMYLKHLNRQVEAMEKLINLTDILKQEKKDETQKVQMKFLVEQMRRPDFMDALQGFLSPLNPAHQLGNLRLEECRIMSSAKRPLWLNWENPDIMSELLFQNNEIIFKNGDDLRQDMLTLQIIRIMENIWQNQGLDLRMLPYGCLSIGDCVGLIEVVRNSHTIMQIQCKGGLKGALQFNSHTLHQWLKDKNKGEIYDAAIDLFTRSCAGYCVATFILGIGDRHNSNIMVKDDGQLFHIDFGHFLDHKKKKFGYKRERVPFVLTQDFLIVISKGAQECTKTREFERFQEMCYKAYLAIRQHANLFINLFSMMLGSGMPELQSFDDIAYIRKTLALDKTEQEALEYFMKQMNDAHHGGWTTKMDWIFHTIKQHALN

[9] = target: MAP2K6 (human) (UniProt P52564)
[10] = target: PRKACB (human) (UniProt P22694)
[11] = target: PI4KB (human) (UniProt Q9UBF8)
[12] = target: MAP4K3 (human) (UniProt Q8IVH8)
[13] = target: STK4 (human) (UniProt Q13043)
[14] = target: SRPK2 (human) (UniProt P78362)
[15] = target: CDK16 (human) (UniProt Q00536)
Sequence of CDK16 (human) (Q00536 whole entry, looked up): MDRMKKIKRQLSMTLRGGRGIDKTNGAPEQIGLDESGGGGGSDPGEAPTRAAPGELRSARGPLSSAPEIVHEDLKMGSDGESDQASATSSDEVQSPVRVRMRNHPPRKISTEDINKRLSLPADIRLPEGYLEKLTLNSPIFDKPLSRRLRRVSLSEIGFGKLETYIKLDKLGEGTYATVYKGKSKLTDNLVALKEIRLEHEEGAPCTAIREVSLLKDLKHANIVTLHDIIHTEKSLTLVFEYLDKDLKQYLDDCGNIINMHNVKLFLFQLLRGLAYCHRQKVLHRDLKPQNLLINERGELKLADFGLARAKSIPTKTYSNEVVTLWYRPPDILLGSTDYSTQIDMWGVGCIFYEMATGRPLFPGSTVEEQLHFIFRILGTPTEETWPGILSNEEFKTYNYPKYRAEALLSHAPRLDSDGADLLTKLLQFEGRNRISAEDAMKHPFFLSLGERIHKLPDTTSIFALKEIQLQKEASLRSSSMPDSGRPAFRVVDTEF

[16] = target: ACVR2B (human) (UniProt Q13705)
[17] = target: CDK7 (human) (UniProt P50613)
[18] = target: WEE1 (human) (UniProt P30291)
[19] = target: NEK1 (human) (UniProt Q96PY6)
Sequence of NEK1 (human) (Q96PY6 whole entry, looked up): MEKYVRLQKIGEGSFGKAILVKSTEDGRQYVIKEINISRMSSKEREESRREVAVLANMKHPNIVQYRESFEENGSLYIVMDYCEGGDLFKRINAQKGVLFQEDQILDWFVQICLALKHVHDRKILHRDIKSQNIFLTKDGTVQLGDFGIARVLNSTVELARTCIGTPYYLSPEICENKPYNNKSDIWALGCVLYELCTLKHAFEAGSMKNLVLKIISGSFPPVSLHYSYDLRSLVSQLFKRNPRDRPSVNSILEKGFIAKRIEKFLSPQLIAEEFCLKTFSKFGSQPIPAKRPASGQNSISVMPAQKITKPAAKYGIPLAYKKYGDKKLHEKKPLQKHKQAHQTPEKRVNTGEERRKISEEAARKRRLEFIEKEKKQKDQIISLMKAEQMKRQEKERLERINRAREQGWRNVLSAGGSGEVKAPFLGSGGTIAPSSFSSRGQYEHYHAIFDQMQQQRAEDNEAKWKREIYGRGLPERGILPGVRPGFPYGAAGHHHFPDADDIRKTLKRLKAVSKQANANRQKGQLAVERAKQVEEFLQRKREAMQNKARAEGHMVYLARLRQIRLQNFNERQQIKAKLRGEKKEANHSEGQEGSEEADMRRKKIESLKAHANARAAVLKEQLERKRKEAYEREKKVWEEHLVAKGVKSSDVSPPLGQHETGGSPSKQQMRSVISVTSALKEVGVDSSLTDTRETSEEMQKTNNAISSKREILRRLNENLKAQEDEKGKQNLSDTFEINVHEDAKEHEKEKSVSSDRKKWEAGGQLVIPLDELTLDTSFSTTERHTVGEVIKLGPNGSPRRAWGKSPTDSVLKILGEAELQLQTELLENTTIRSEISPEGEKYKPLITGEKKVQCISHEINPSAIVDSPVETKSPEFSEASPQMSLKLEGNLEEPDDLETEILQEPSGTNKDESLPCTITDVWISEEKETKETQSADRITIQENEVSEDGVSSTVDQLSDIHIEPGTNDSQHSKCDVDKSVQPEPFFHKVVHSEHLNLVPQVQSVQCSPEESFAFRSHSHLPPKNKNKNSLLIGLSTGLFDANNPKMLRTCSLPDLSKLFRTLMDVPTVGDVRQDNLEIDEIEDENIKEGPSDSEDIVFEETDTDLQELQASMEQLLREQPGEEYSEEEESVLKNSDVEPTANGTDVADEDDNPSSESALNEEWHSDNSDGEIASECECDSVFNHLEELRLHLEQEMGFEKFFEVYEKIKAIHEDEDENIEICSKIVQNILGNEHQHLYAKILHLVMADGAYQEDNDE

[20] = system: FLT3 (human), P36888 [K663Q]
[21] = system: PIK3CA (human), P42336 [C420R]
Sequence of PIK3CA (human), P42336 [C420R] (P42336 whole entry C420R, looked up): as the sequence (P42336 whole entry, looked up) above, with C420R counted along it

[22] = target: CAMKK2 (human) (UniProt Q96RR4)
[23] = target: EPHB1 (human) (UniProt P54762)
[24] = target: DAPK1 (human) (UniProt P53355)
[25] = system: ABL1 (human), P00519 [H396P]
[26] = target: JAK3 JH1 catalytic (human) (UniProt P52333)
[27] = target: EPHB6 (human) (UniProt O15197)
Sequence of EPHB6 (human) (O15197 whole entry, looked up): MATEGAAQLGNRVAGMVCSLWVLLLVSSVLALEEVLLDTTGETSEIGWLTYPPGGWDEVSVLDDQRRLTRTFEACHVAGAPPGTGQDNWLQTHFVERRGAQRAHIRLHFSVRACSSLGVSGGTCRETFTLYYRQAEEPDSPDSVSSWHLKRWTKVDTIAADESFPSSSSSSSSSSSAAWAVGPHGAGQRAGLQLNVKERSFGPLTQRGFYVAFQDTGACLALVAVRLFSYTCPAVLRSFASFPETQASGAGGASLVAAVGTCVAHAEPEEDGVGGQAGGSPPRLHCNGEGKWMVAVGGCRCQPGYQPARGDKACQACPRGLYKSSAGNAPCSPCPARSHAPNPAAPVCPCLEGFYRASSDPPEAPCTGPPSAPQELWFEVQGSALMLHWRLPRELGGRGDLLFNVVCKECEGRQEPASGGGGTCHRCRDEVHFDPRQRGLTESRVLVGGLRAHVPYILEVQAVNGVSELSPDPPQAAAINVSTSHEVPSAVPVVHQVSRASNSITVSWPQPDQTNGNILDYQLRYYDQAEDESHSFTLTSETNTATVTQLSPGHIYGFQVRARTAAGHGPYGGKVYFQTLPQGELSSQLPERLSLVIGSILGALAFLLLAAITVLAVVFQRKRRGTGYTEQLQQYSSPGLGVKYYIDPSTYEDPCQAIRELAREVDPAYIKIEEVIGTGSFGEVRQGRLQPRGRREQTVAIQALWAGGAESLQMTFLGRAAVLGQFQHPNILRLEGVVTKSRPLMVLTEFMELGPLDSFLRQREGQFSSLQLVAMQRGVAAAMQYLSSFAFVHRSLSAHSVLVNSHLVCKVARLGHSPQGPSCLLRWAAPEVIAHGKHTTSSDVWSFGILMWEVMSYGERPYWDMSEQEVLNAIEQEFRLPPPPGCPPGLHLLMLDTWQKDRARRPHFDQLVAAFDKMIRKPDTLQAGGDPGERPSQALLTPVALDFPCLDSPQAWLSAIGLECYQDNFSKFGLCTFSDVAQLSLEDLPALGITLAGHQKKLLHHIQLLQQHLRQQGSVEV

[28] = system: ABL1 (human), P00519 [M351T]
[29] = target: FGFR2 (human) (UniProt P21802)
[30] = target: GSK3A (human) (UniProt P49840)
[31] = target: DMPK (human) (UniProt Q09013)
[32] = target: MAP3K7 (human) (UniProt O43318)
[33] = target: PRKX (human) (UniProt P51817)
[34] = target: NTRK1 (human) (UniProt P04629)
[35] = target: PRKAA2 (human) (UniProt P54646)
Sequence of PRKAA2 (human) (P54646 whole entry, looked up): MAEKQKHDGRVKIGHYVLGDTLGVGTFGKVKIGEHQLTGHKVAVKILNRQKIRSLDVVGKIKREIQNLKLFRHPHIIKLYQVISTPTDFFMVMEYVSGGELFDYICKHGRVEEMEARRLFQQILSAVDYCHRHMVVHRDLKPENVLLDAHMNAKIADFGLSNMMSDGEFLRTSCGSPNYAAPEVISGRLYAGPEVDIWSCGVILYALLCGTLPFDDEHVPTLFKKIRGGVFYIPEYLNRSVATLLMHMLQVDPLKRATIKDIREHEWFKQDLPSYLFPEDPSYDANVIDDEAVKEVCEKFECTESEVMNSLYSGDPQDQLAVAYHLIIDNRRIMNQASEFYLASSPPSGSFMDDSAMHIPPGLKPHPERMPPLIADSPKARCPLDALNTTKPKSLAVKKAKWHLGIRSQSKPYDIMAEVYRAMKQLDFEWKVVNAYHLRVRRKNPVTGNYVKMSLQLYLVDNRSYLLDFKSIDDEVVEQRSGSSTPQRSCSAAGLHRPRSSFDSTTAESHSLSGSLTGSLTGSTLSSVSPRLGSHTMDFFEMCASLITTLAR

[36] = target: TGFBR1 (human) (UniProt P36897)
[37] = target: YES1 (human) (UniProt P07947)
[38] = target: RPS6KA1 KD1 (human) (UniProt Q15418)
[39] = target: PHKG1 (human) (UniProt Q16816)
[40] = target: CAMK2G (human) (UniProt Q13555)
[41] = target: SLK (human) (UniProt Q9H2G2)

In the case of `Cn1cc(C2=C(c3ccc(Cl)cc3Cl)C(=O)NC2=O)c2ccccc21`, the kinase still bound, per cent of control [1] is reported as 53%, the kinase still bound, per cent of control [2] is reported as 100% and the kinase still bound, per cent of control [3] is reported as 100%. For the same compound, the kinase still bound, per cent of control [4] was 100%, the kinase still bound, per cent of control [5] was 100% and the kinase still bound, per cent of control [6] was 72%. The kinase still bound, per cent of control [7] was 95%, the kinase still bound, per cent of control [8] was 92% and the kinase still bound, per cent of control [9] was 57%. It also gave a kinase still bound, per cent of control [10] of 100%, a kinase still bound, per cent of control [11] of 94% and a kinase still bound, per cent of control [12] of 70%. For the same compound, the kinase still bound, per cent of control [13] was 62%, the kinase still bound, per cent of control [14] was 83% and the kinase still bound, per cent of control [15] was 0.2%. The kinase still bound, per cent of control [16] was 100%, the kinase still bound, per cent of control [17] was 43% and the kinase still bound, per cent of control [18] was 80%. The kinase still bound, per cent of control [19] was 86%, the kinase still bound, per cent of control [20] was 62% and the kinase still bound, per cent of control [21] was 86%. It also gave a kinase still bound, per cent of control [22] of 72%, a kinase still bound, per cent of control [23] of 91% and a kinase still bound, per cent of control [24] of 79%. It also gave a kinase still bound, per cent of control [25] of 90%, a kinase still bound, per cent of control [26] of 98% and a kinase still bound, per cent of control [27] of 100%. The kinase still bound, per cent of control [28] was 82%, the kinase still bound, per cent of control [29] was 100% and the kinase still bound, per cent of control [30] was 0%. For the same compound, the kinase still bound, per cent of control [31] was 98%, the kinase still bound, per cent of control [32] was 100% and the kinase still bound, per cent of control [33] was 100%. It also gave a kinase still bound, per cent of control [34] of 77%, a kinase still bound, per cent of control [35] of 52% and a kinase still bound, per cent of control [36] of 96%. It also gave a kinase still bound, per cent of control [37] of 100%, a kinase still bound, per cent of control [38] of 58% and a kinase still bound, per cent of control [39] of 100%. For the same compound, the kinase still bound, per cent of control [40] was 58% and the kinase still bound, per cent of control [41] was 8.7%.
